The source of these data is PubChem BioAssay AID588588 (Sanford-Burnham Center for Chemical Genomics, 2011).

Each structure is given as a SMILES string. Several values for one entry are separate records, joined by “and”; a condition that tells them apart may be missing. Equal values may be shown once. Activity calls are given as the source filed them. No rule for the calls is given here.

The assay concerns the target glucose-6-phosphate dehydrogenase-6-phosphogluconolactonase (Plasmodium falciparum 3D7). Nature of the assay: PfG6PD enzyme inhibitors, direct NADPH readout, SAR follow-up, orthogonal assay, biochemical, end-point NADPH detection (AID 588588). Particulars: recombinant PfG6PD-6PGL.
In the case of `CCN1CCCC1CNC(=O)c1ccc2c(c1)N(Cc1ccccc1F)C(=O)c1ccccc1S2` (stereo not drawn), the IC50 (in general, the point on the concentration scale where inhibition reaches its midpoint) is > 80 µM (inactive). The result for `CCN1CCCC1CNC(=O)c1ccc2c(c1)NC(=O)CS2` (stereo not drawn) reads > 80 µM (inactive); that for `CCN(CC)CCNC(=O)c1ccc2c(c1)NC(=O)/C(=C\c1ccc(OC)cc1)S2`, > 80 µM (inactive).

As to `CCN(CC)CCNC(=O)c1ccc2c(c1)N(Cc1ccc(C)cc1)C(=O)c1ccccc1S2`, the IC50 is > 80 µM (inactive). The result for `CCN(CCNC(=O)c1ccc2c(c1)N(CC)C(=O)c1ccccc1S2)c1ccccc1` reads > 80 µM (inactive); that for `COc1ccc(C(=O)Nc2nnc(S(=O)(=O)N3CCCCCC3)s2)cc1OC`, > 80 µM (inactive); that for `CCN(CC)CCNC(=O)c1ccc2c(c1)NC(=O)c1ccccc1S2`, 67.3 µM and 69.8 µM.

`O=C1Nc2cc(C(=O)NCCN3CCCCCC3)ccc2S/C1=C/c1ccccc1Cl`: the IC50 is > 80 µM (inactive). The result for `CCN1CCCC1CNC(=O)c1ccc2c(c1)NC(=O)/C(=C\c1ccccc1Cl)S2` (stereo not drawn) reads > 80 µM (inactive).

`Cc1ccc(C(=O)Nc2nnc(S(=O)(=O)N3c4ccccc4CC3C)s2)cc1` (stereo not drawn): the IC50 is > 80 µM (inactive). Turning to `O=C(Nc1nnc(S(=O)(=O)N2CCCCCC2)s1)C1CCCCC1`, the IC50 was > 80 µM (inactive). As for `COc1cccc(C(=O)Nc2nnc(S(=O)(=O)N3CCCCCC3)s2)c1`, the figure is > 80 µM (inactive); as for `COc1ccc(/C=C2/Sc3ccc(C(=O)NCCN(C)C)cc3NC2=O)cc1`, > 80 µM (inactive).

Take `O=C1Nc2cc(C(=O)NCCN3CCCCCC3)ccc2S/C1=C/c1ccccc1F`: the IC50 was > 80 µM (inactive). The result for `CCN(CCNC(=O)c1ccc2c(c1)N(Cc1cc(C)ccc1C)C(=O)c1ccccc1S2)c1ccccc1` reads > 80 µM (inactive); that for `Cc1ccc(CN2C(=O)c3ccccc3Sc3ccc(C(=O)NCCN(C)C)cc32)cc1`, > 80 µM (inactive).

`O=C(Nc1nnc(S(=O)(=O)N2CCCCCC2)s1)c1cccc(Cl)c1`: the IC50 is > 80 µM (inactive). `O=C1Nc2cc(C(=O)NCCN3CCOCC3)ccc2S/C1=C\c1ccccc1F`: the IC50 was > 80 µM (inactive). The result for `Cc1ccc(C(=O)Nc2nnc(S(=O)(=O)N3CCCc4ccccc43)s2)cc1` reads > 80 µM (inactive).

On to `COc1ccccc1C(=O)Nc1nnc(S(=O)(=O)N2CCCCCC2)s1`, for which the IC50 was > 80 µM (inactive). The result for `O=C1COc2ccc(C(=O)NCCN3CCCC3)cc2N1` reads > 80 µM (inactive); that for `O=C(Nc1nnc(S(=O)(=O)N2CCCCCC2)s1)c1ccccc1F`, > 80 µM (inactive); that for `CCN1CCC[C@@H]1CNC(=O)c1ccc2c(c1)NC(=O)/C(=C/c1ccccc1F)S2`, > 80 µM (inactive).

On to `CCN(CC)CCNC(=O)c1ccc2c(c1)NC(=O)CO2`, for which the IC50 is > 80 µM (inactive).

For the molecule `COc1ccc(C(=O)Nc2nnc(S(=O)(=O)N3CCCCCC3)s2)cc1`, the IC50 is > 80 µM (inactive).

In the case of `CCC(C)N(CCNC(=O)c1ccc2c(c1)NC(=O)c1ccccc1S2)C1CCCCC1` (stereo not drawn), the IC50 was 6.22 µM. The result for `CCN(CC)CCNC(=O)c1ccc2c(c1)NC(=O)/C(=C\c1ccc(OC)c(OC)c1)S2` reads > 80 µM (inactive). Take `CC1Cc2ccccc2N1S(=O)(=O)c1nnc(NC(=O)c2cccc(F)c2)s1` (stereo not drawn): the IC50 is > 80 µM (inactive). On to `CCN1CCCC1CNC(=O)c1ccc2c(c1)NC(=O)/C(=C/c1cccc3ccccc13)S2` (stereo not drawn), for which the IC50 is > 80 µM (inactive). Take `O=C1Nc2cc(C(=O)NCCN3CCCC3)ccc2S/C1=C/c1ccccc1Cl`: the IC50 is > 80 µM (inactive). As for `COc1cccc(/C=C2/Sc3ccc(C(=O)NCCN4CCCC4)cc3NC2=O)c1`, the figure is > 80 µM (inactive).

As to `COc1cccc(/C=C2/Sc3ccc(C(=O)NCCN4CCCCCC4)cc3NC2=O)c1`, the IC50 was > 80 µM (inactive). The result for `Cc1cccc(C(=O)Nc2nnc(S(=O)(=O)N3CCCc4ccccc43)s2)c1` reads > 80 µM (inactive); that for `CCN(CC)CCNC(=O)c1ccc2c(c1)NC(=O)/C(=C\c1ccccc1Cl)S2`, > 80 µM (inactive). As for `Cc1cccc(N2CCN(CCNC(=O)c3ccc4c(c3)NC(=O)c3ccccc3S4)CC2)c1C`, the figure is > 80 µM (inactive). The result for `O=C1Nc2cc(C(=O)NCc3ccccc3)ccc2S/C1=C\c1ccccc1F` reads > 80 µM (inactive). Take `O=C(NCCN1CCCCC1)c1ccc2c(c1)NC(=O)c1ccccc1O2`: the concentration for half-maximal inhibition (IC50) was 50.3 µM. Regarding `O=C(Nc1nnc(S(=O)(=O)N2CCCCCC2)s1)c1cccc(F)c1`, the IC50 was > 80 µM (inactive). For the molecule `O=C(Nc1nnc(S(=O)(=O)N2CCCCCC2)s1)c1ccccc1`, the IC50 is > 80 µM (inactive). As for `CN(C)CCNC(=O)c1ccc2c(c1)NC(=O)/C(=C/c1ccccc1F)S2`, the IC50 is > 80 µM (inactive). Turning to `CN1CCN(C(=O)c2ccc3c(c2)NC(=O)/C(=C/c2ccccc2Cl)S3)CC1`, the IC50 was > 80 µM (inactive). Turning to `O=C1COc2ccc(C(=O)NCCN3CCCCC3)cc2N1`, the IC50 is > 80 µM (inactive). The result for `O=C(NCCN1CCCC1)c1ccc2c(c1)NC(=O)c1ccccc1O2` reads > 80 µM (inactive). Consider `O=C1COc2ccc(C(=O)NCCN3CCOCC3)cc2N1`, for which the IC50 was > 80 µM (inactive). For `O=C(Nc1nnc(S(=O)(=O)N2CCCCCC2)s1)c1ccco1`, the IC50 is > 80 µM (inactive). For the molecule `CCN1CCCC1CNC(=O)c1ccc2c(c1)NC(=O)/C(=C/c1ccccc1OC)S2` (stereo not drawn), the IC50 was > 80 µM (inactive). As for `CCN1CCCC1CNC(=O)c1ccc2c(c1)NC(=O)/C(=C/c1ccccc1C)S2` (stereo not drawn), the IC50 is > 80 µM (inactive). Regarding `CCN1CCCC1CNC(=O)c1ccc2c(c1)N(Cc1cccc(F)c1)C(=O)c1ccccc1S2` (stereo not drawn), the IC50 was > 80 µM (inactive). In the case of `O=C1Nc2cc(C(=O)NCCN3CCCC3)ccc2S/C1=C/c1ccccc1F`, the IC50 was > 80 µM (inactive). As for `O=C1Nc2cc(C(=O)NCCN3CCCCC3)ccc2S/C1=C\c1ccccc1F`, the IC50 was > 80 µM (inactive). Regarding `CCN(CC)CCNC(=O)c1ccc2c(c1)NC(=O)/C(=C\c1ccccc1F)S2`, the IC50 is > 80 µM (inactive). As for `CCN1CCCC1CNC(=O)c1ccc2c(c1)NC(=O)CO2` (stereo not drawn), the figure is > 80 µM (inactive); as for `O=C(NCCN1CCCC1)c1ccc2c(c1)NC(=O)c1ccccc1S2`, > 80 µM (inactive); as for `CN(CCNC(=O)c1ccc2c(c1)NC(=O)c1ccccc1S2)C1CCCCC1`, > 80 µM (inactive). The result for `CCN1CCC[C@H]1CNC(=O)c1ccc2c(c1)NC(=O)/C(=C/c1ccccc1F)S2` reads > 80 µM (inactive); that for `COc1ccc(/C=C2/Sc3ccc(C(=O)NCCN4CCCCCC4)cc3NC2=O)cc1`, > 80 µM (inactive); that for `CCN(CC)CCNC(=O)c1ccc2c(c1)NC(=O)/C(=C/c1ccccc1)S2`, > 80 µM (inactive). As for `CN(C)CCNC(=O)c1ccc2c(c1)NC(=O)c1ccccc1O2`, the figure is > 80 µM (inactive); as for `CCN(CCNC(=O)c1ccc2c(c1)NC(=O)c1ccccc1S2)c1ccccc1`, > 80 µM (inactive). `O=C(Nc1nnc(S(=O)(=O)N2CCCCC2)s1)c1cccc(F)c1`: the IC50 was > 80 µM (inactive). In the case of `CCN1CCCC1CNC(=O)c1ccc2c(c1)NC(=O)/C(=C\c1ccc(C)cc1)S2` (stereo not drawn), the IC50 is > 80 µM (inactive). Regarding `CCN1CCCC1CNC(=O)c1ccc2c(c1)N(Cc1ccccc1Cl)C(=O)c1ccccc1S2` (stereo not drawn), the IC50 is > 80 µM (inactive). As for `Cc1cccc(C(=O)Nc2nnc(S(=O)(=O)N3CCC(C)CC3)s2)c1`, the figure is > 80 µM (inactive); as for `CN(C)CCNC(=O)c1ccc2c(c1)NC(=O)/C(=C\c1ccccc1F)S2`, > 80 µM (inactive); as for `O=C(NCCN1CCOCC1)c1ccc2c(c1)NC(=O)c1ccccc1O2`, > 80 µM (inactive). As for `O=C(Nc1nnc(S(=O)(=O)N2CCCCCC2)s1)c1ccc(F)cc1`, the figure is > 80 µM (inactive); as for `CCN1CCCC1CNC(=O)c1ccc2c(c1)NC(=O)c1ccccc1S2` (stereo not drawn), 6.64 µM and 9.89 µM; as for `CCCN(CCC)CCNC(=O)c1ccc2c(c1)NC(=O)/C(=C/c1ccccc1)S2`, > 80 µM (inactive).

As to `CCN(CC)CCNC(=O)c1ccc2c(c1)NC(=O)c1ccccc1O2`, the IC50 is > 80 µM (inactive). On to `Cc1cccc(C(=O)Nc2nnc(S(=O)(=O)N3c4ccccc4CC3C)s2)c1` (stereo not drawn), for which the IC50 was > 80 µM (inactive). With `CN(C)CCNC(=O)c1ccc2c(c1)NC(=O)CO2`, the IC50 was > 80 µM (inactive). As for `CCN(CC)CCNC(=O)c1ccc2c(c1)N(Cc1ccccc1Cl)C(=O)c1ccccc1S2`, the figure is > 80 µM (inactive). The result for `O=C(Nc1nnc(S(=O)(=O)N2CCCCCC2)s1)c1cccc(Br)c1` reads > 80 µM (inactive). The result for `CCN(CC)CCNC(=O)c1ccc2c(c1)N(Cc1cc(C)ccc1C)C(=O)c1ccccc1S2` reads > 80 µM (inactive); that for `CC1Cc2ccccc2N1S(=O)(=O)c1nnc(NC(=O)c2cccc(Br)c2)s1` (stereo not drawn), > 80 µM (inactive); that for `CCOc1ccc(C(=O)Nc2nnc(S(=O)(=O)N3CCCCCC3)s2)cc1`, > 80 µM (inactive). In the case of `Cc1cccc(C(=O)Nc2nnc(S(=O)(=O)N3CCCCCC3)s2)c1`, the IC50 was > 80 µM (inactive).

Turning to `CCN1CCCC1CNC(=O)c1ccc2c(c1)NC(=O)/C(=C/c1ccccc1)S2` (stereo not drawn), the IC50 was > 80 µM (inactive). Take `CCN(CC)CCNC(=O)c1ccc2c(c1)NC(=O)/C(=C\c1cccc(C)c1)S2`: the IC50 was > 80 µM (inactive).

Consider `Cc1ccccc1C(=O)Nc1nnc(S(=O)(=O)N2CCCCCC2)s1`, for which the IC50 was > 80 µM (inactive). The result for `Cc1ccccc1C(=O)Nc1nnc(S(=O)(=O)N2CCCc3ccccc32)s1` reads > 80 µM (inactive). As to `Cc1cccc(/C=C2/Sc3ccc(C(=O)NCCN4CCCC4)cc3NC2=O)c1`, the IC50 was > 80 µM (inactive). `CCN1CCCC1CNC(=O)c1ccc2c(c1)NC(=O)/C(=C\c1ccccc1F)S2` (stereo not drawn): the IC50 was > 80 µM (inactive).
